Experiments:
[1] = 101.33 kPa, Liquid; for viscosity: Capillary tube (Ostwald / Ubbelohde) method; for mass density: Vibrating tube method
[2] = xn = mol fraction of the nth substance listed; settings: 100 kPa, Liquid, x1 = 1; for viscosity: Capillary tube (Ostwald / Ubbelohde) method; for mass density: Vibrating tube method

CCCCn1cc[n+](C)c1.N#CN=C=[N-] [1-butyl-3-methylimidazolium dicyanamide]
[1]
Settings	mass density [kg/m3]	viscosity [mPa·s]
273.15 K	1075.2	95.68
278.15 K	1072.13	71.85
283.15 K	1068.94	55.27
288.15 K	1065.72	43.57
293.15 K	1062.52	35.04
298.15 K	1059.33	28.5
303.15 K	1056.15	23.52
308.15 K	1052.99	19.87
313.15 K	1049.85	16.95
318.15 K	1046.72	14.61
323.15 K	1043.61	12.65
328.15 K	1040.51	–
333.15 K	1037.43	–

CCCCn1cc[n+](C)c1.N#CN=C=[N-] [1-butyl-3-methylimidazolium dicyanamide] + O=C1CCCO1
[2]
Settings	mass density [kg/m3]	viscosity [mPa·s]
273.15 K	1075.2	95.68
283.15 K	1068.94	55.27
293.15 K	1062.52	35.04
298.15 K	1059.33	28.5
303.15 K	1056.15	23.52
313.15 K	1049.85	16.95
323.15 K	1043.61	12.65
